Measured values from ChEMBL document CHEMBL5500400, “Design and Discovery of a Potent and Selective Inhibitor of Integrin αvβ1” (J Med Chem, 2024).

How the values were obtained:
[1] = target: Integrin alpha-V/beta-1 (Homo sapiens, UniProt P05556+P06756); experiment: Inhibition of recombinant human Integrin alphaVbeta1 using TMB as substrate incubated for 2 hrs in presence of fibronectin by ELISA; assay type: protein-complex assay
[2] = target: Integrin alpha-V/beta-3 (Homo sapiens, UniProt P05106+P06756); experiment: Inhibition of recombinant human Integrin alphaVbeta3 using TMB as substrate incubated for 2 hrs in presence of vitronectin by ELISA; assay type: protein-complex assay
Integrin alpha-V/beta-3, sequence (P05106 27-788 limits assumed): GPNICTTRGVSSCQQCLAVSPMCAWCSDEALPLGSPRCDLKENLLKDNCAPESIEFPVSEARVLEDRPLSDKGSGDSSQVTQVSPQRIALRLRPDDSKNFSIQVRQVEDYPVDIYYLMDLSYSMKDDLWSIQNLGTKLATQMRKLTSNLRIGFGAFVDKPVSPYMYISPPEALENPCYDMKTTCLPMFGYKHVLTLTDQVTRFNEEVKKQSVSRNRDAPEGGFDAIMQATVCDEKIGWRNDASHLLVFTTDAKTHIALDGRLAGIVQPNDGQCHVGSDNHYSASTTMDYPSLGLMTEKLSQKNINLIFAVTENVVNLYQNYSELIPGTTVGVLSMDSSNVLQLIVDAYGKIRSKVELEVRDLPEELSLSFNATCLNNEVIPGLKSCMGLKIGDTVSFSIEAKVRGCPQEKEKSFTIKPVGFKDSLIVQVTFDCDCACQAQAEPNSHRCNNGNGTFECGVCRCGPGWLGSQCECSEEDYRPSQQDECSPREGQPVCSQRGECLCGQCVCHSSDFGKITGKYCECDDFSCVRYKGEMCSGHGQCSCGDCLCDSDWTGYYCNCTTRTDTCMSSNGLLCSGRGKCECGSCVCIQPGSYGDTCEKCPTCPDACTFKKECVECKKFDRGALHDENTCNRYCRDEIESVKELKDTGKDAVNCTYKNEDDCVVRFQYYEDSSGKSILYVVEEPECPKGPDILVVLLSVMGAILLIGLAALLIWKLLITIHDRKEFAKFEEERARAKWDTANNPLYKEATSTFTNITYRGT
Integrin alpha-V/beta-3, sequence (P06756 31-889 limits assumed): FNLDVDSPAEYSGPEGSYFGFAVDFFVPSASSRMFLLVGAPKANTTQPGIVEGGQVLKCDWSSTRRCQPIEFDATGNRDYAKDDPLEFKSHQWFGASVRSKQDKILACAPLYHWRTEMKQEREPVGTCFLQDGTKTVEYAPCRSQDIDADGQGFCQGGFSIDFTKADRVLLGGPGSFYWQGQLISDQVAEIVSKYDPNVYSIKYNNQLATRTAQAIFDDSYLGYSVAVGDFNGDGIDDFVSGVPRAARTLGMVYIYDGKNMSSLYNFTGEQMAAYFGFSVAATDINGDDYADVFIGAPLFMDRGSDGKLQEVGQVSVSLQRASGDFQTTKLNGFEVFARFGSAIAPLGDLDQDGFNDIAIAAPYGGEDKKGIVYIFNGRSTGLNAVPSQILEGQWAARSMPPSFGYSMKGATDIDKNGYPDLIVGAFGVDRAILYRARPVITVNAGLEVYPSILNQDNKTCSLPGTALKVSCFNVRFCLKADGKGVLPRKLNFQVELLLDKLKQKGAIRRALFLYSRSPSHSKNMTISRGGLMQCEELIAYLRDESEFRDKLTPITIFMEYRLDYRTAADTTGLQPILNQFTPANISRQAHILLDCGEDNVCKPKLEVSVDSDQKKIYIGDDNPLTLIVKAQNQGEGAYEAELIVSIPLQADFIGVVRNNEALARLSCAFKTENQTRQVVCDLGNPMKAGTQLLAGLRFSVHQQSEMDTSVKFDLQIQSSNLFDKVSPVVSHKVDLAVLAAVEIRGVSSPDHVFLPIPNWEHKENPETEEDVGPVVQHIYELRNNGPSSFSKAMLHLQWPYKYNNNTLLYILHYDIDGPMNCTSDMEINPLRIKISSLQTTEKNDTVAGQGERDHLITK
Integrin alpha-V/beta-3, sequence (P06756 891-1048 limits assumed): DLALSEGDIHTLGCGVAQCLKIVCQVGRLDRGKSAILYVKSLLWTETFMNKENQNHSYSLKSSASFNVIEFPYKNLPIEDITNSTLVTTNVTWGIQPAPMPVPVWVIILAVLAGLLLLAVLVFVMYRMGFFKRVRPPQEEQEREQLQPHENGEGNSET

[3] = target: Integrin alpha-V/beta-5 (Homo sapiens, UniProt P06756+P18084); experiment: Inhibition of recombinant human Integrin alphaVbeta5 using TMB as substrate incubated for 2 hrs in presence of fibronectin by ELISA; assay type: protein-complex assay
Integrin alpha-V/beta-5, sequence (P06756 31-889 limits assumed): as the sequence (P06756 31-889 limits assumed) above
Integrin alpha-V/beta-5, sequence (P06756 891-1048 limits assumed): as the sequence (P06756 891-1048 limits assumed) above
Integrin alpha-V/beta-5, sequence (P18084 24-799 limits assumed): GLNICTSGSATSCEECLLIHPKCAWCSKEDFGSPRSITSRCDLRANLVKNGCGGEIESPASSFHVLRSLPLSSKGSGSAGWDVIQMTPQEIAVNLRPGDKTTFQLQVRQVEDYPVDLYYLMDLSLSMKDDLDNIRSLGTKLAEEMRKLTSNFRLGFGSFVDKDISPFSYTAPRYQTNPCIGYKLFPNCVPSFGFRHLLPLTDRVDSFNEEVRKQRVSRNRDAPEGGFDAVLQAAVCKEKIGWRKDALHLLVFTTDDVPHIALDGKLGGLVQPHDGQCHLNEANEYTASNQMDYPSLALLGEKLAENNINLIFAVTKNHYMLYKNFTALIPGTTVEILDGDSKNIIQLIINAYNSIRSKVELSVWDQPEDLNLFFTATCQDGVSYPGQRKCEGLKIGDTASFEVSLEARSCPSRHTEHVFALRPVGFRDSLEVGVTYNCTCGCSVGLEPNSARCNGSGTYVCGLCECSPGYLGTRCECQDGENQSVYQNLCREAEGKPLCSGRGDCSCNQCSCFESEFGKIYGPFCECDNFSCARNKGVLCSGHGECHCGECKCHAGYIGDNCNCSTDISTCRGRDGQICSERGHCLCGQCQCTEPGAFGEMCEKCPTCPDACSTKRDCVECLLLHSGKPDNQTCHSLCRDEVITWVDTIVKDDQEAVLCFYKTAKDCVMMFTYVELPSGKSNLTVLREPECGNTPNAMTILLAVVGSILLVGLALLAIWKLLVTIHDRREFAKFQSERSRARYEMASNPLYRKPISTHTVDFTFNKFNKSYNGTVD

[4] = target: Integrin alpha-V/beta-6 (Homo sapiens, UniProt P06756+P18564); experiment: Inhibition of recombinant human Integrin alphaVbeta6 using TMB as substrate incubated for 2 hrs in presence of LAP by ELISA; assay type: protein-complex assay
[5] = target: Integrin alpha-V/beta-8 (Homo sapiens, UniProt P06756+P26012); experiment: Inhibition of recombinant human Integrin alphaVbeta8 using TMB as substrate incubated for 2 hrs in presence of LAP by ELISA; assay type: protein-complex assay
[6] = target: Integrin alpha-4/beta-1 (Homo sapiens, UniProt P05556+P13612); experiment: Inhibition of recombinant human Integrin alpha4beta1 using TMB as substrate incubated for 2 hrs in presence of VCAM-1 by ELISA; assay type: protein-complex assay
[7] = target: Integrin alpha-5/beta-1 (Homo sapiens, UniProt P05556+P08648); experiment: Inhibition of recombinant human Integrin alpha5beta1 using TMB as substrate incubated for 2 hrs in presence of fibronectin by ELISA; assay type: protein-complex assay
Integrin alpha-5/beta-1, sequence (P05556 21-798 limits assumed): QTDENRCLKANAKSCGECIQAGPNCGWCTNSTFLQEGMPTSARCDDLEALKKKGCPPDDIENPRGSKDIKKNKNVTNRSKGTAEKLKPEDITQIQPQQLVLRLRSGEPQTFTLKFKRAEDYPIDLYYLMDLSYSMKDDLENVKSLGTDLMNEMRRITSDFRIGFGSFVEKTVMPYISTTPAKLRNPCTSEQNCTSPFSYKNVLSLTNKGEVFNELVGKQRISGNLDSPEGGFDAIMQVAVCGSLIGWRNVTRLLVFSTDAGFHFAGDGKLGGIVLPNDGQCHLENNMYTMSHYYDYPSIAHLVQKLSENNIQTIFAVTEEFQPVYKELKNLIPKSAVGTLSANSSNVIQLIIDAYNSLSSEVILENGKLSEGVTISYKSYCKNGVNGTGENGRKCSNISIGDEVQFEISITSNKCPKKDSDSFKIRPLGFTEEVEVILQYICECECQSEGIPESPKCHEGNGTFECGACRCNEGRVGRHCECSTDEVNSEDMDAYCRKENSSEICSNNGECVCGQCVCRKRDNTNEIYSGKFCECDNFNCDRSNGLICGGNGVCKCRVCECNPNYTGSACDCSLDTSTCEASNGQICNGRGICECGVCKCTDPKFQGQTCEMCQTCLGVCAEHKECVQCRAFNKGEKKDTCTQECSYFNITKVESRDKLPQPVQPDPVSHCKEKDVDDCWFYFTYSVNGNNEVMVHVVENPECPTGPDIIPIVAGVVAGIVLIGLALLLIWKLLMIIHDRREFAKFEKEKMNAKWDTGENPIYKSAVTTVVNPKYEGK
Integrin alpha-5/beta-1, sequence (P08648 42-894 limits assumed): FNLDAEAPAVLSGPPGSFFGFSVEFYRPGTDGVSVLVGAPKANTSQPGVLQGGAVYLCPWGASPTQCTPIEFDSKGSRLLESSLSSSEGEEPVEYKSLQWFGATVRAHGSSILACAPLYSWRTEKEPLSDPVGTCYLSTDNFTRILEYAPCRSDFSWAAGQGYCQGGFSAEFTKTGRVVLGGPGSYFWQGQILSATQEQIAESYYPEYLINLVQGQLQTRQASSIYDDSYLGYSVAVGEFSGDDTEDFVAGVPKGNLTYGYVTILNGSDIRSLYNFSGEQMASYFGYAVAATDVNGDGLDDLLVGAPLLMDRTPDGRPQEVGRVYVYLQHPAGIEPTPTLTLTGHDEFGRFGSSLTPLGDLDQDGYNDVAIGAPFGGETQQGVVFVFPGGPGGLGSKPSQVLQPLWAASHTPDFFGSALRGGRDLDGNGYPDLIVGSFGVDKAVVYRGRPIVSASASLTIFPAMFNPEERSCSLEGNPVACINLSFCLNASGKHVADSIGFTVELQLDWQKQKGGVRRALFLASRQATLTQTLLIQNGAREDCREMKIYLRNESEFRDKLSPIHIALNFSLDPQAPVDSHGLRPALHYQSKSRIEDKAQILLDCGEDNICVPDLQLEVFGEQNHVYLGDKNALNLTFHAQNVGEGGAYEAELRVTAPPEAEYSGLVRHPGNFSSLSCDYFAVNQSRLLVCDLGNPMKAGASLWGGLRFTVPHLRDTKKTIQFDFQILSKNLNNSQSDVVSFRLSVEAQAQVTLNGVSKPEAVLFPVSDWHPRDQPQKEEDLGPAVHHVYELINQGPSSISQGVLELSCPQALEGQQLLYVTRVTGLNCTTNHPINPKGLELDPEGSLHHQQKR
Integrin alpha-5/beta-1, sequence (P08648 895-1049 limits assumed): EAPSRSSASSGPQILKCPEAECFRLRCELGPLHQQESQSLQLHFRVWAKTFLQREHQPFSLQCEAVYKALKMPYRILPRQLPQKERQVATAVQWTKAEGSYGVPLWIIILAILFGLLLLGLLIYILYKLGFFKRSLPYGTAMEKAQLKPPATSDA

[8] = Apparent permeability across apical to basolateral side in dog MDCK-MDR1 cells incubated for 60 mins by HPLC analysis; assay type: ADME, cell-based, Canis lupus familiaris
[9] = Apparent permeability across basolateral to apical side in dog MDCK-MDR1 cells incubated for 60 mins by HPLC analysis; assay type: ADME, cell-based, Canis lupus familiaris

Integrin alpha-V/beta-1, sequence (P05556 21-798 limits assumed): as the sequence (P05556 21-798 limits assumed) above
Integrin alpha-V/beta-1, sequence (P06756 31-889 limits assumed): as the sequence (P06756 31-889 limits assumed) above
Integrin alpha-V/beta-1, sequence (P06756 891-1048 limits assumed): as the sequence (P06756 891-1048 limits assumed) above

Row | IC50 [1] [nM] | IC50 [2] [nM] | IC50 [3] [nM] | IC50 [4] [nM] | IC50 [5] [nM] | IC50 [6] [nM] | IC50 [7] [nM] | Papp A→B at 1 h [8] [×10⁻⁶ cm/s] | Papp B→A at 1 h [9] [×10⁻⁶ cm/s] | SMILES
1 | 200 | 3980 | 1260 | > 10000 | 7940 | 200 | 631 |  |  | O=C(NC(CNc1ccc(N2CCNC2=O)cc1)C(=O)O)c1c(Cl)cccc1Cl (racemic)
2 | 31.6 | > 10000 | > 10000 | > 10000 | 6310 | > 10000 | 631 |  |  | O=C(Cn1c(=O)[nH]c2ncccc21)NC[C@H](NC(=O)c1c(F)cc(-c2ccccc2)cc1Cl)C(=O)O
3 | 1.26 | > 10000 | > 10000 | 6310 | 3980 | 5010 | 158 |  |  | COc1cc(F)c(C(=O)N[C@@H](CNC(=O)Cn2c(=O)[nH]c3ncccc32)C(=O)O)c(Cl)c1
4 | 398 |  |  |  |  |  |  |  |  | O=C(CN1Cc2ccccc2NC1=O)NC[C@H](NC(=O)c1ccccc1Cl)C(=O)O
5 | 0.631 |  |  |  |  |  |  | 0.9 | 0.7 | Cc1ccc(Cl)c(C(=O)N[C@@H](CNC(=O)Cn2c(=O)[nH]c3ncncc32)C(=O)O)c1F
6 | 1.58 |  |  |  |  |  |  | 0.8 | 0.6 | Cc1cc2[nH]c(=O)n(CC(=O)NC[C@H](NC(=O)c3c(Cl)ccc(C)c3F)C(=O)O)c2cc1C
7 | 20 | > 10000 | > 10000 | > 10000 | > 10000 | 2000 | 1260 |  |  | O=C(Cn1c(=O)[nH]c2ccccc21)NC[C@H](NC(=O)c1c(Cl)cccc1Cl)C(=O)O
8 | 10 | > 10000 | > 10000 | > 10000 | > 10000 | 5010 | 2510 |  |  | Cc1cc(C#N)cc(C)c1C(=O)N[C@@H](CNC(=O)Cn1c(=O)[nH]c2ncccc21)C(=O)O
9 | 3.98 | > 10000 | > 10000 | > 10000 | 6310 | 3160 | 398 |  |  | O=C(Cn1c(=O)[nH]c2ncccc21)NC[C@H](NC(=O)c1c(Cl)cccc1Cl)C(=O)O
10 | 1 |  |  |  |  |  |  | 1.2 | 0.2 | Cc1ccc(Cl)c(C(=O)N[C@@H](CNC(=O)Cn2c(=O)[nH]c3cc(F)c(F)cc32)C(=O)O)c1F
11 | 0.631 | > 10000 | > 10000 | 3160 | 1580 | 1580 | 251 |  |  | COc1ccc(Cl)c(C(=O)N[C@@H](CNC(=O)Cn2c(=O)[nH]c3ncccc32)C(=O)O)c1F
12 | > 10000 |  |  |  |  |  |  |  |  | O=C(Cn1cnc2ccccc21)NC[C@H](NC(=O)c1ccccc1Cl)C(=O)O
13 | 0.631 |  |  |  |  |  |  | 1.2 | 1.2 | COc1ccc(Cl)c(C(=O)N[C@@H](CNC(=O)Cn2c(=O)[nH]c3ccncc32)C(=O)O)c1F
